Key:
[1] = 101.33 kPa, Liquid; for mass density: Vibrating tube method
[2] = refractive index (Na D-line) (dimensionless); settings: 101.33 kPa, Liquid, Standard Abbe refractometry

CCCCCCCCCCCCOS(=O)(=O)[O-].CCCCn1cc[n+](CCC#N)c1 [1-butyl-3-(2-cyanoethyl)-1H-imidazol-3-ium dodecyl sulfate]
Settings | mass density, [1] [kg/m3] | refractive index, [2] | viscosity, [1] [mPa·s]
293.15 K | 1128.9 | – | 13007
298.15 K | 1123.2 | 1.48791 | 7875
303.15 K | 1119.8 | 1.48619 | 4746
308.15 K | 1116.1 | 1.48443 | 2938
313.15 K | 1112.2 | 1.48232 | 1740
318.15 K | 1108.9 | 1.48009 | 1144
323.15 K | 1105 | 1.47842 | 768
328.15 K | 1101.9 | 1.47695 | 485
333.15 K | 1097.7 | 1.47487 | 338
338.15 K | 1093.6 | – | 235
343.15 K | 1089.7 | – | 162
348.15 K | 1086.3 | – | 114
353.15 K | 1082.2 | – | 76

CCCCn1cc[n+](CCC#N)c1.O=S(=O)([O-])c1ccccc1 [1-butyl-3-(2-cyanoethyl)-1H-imidazolium benzenesulfonate]
Settings | mass density, [1] [kg/m3] | refractive index, [2] | viscosity, [1] [mPa·s]
293.15 K | 1240.3 | – | 4612
298.15 K | 1236.8 | 1.53378 | 2752
303.15 K | 1233.4 | 1.53237 | 1806
308.15 K | 1230.2 | 1.53113 | 1203
313.15 K | 1226.3 | 1.52975 | 792
318.15 K | 1223.7 | 1.52824 | 505
323.15 K | 1220.3 | 1.52684 | 321
328.15 K | 1217.1 | 1.52544 | 214
333.15 K | 1213.5 | 1.52403 | 152
338.15 K | 1210.1 | – | 109
343.15 K | 1207.1 | – | 78
348.15 K | 1204.4 | – | 54
353.15 K | 1201.3 | – | 38

CCCCCCCCCCn1cc[n+](CCC#N)c1.O=C([O-])c1cccc(S(=O)(=O)O)c1 [3-(2-cyanoethyl)-1-decylimidazolium 3-sulfobenzoate]
Settings | mass density, [1] [kg/m3] | refractive index, [2] | viscosity, [1] [mPa·s]
293.15 K | 1136.6 | – | –
298.15 K | 1133.5 | 1.51306 | 17650
303.15 K | 1129.9 | 1.51163 | 11449
308.15 K | 1126.3 | 1.50998 | 7159
313.15 K | 1123.2 | 1.50871 | 4606
318.15 K | 1119.8 | 1.50706 | 3028
323.15 K | 1116.2 | 1.50582 | 1977
328.15 K | 1112.7 | 1.5045 | 1431
333.15 K | 1109.5 | 1.50322 | 944
338.15 K | 1105.9 | – | 623
343.15 K | 1102.6 | – | 431
348.15 K | 1099.3 | – | 294
353.15 K | 1095.8 | – | 198

CCCCCCCCCCCCOS(=O)(=O)[O-].CCCCCCCCCCn1cc[n+](CCC#N)c1 [3-(2-cyanoethyl)-1-decylimidazolium dodecylsulfate]
Settings | mass density, [1] [kg/m3] | refractive index, [2] | viscosity, [1] [mPa·s]
293.15 K | 1053 | – | –
298.15 K | 1050.4 | 1.47447 | –
303.15 K | 1046.9 | 1.47296 | 16145
308.15 K | 1043.3 | 1.47142 | 10417
313.15 K | 1041.8 | 1.46972 | 6231
318.15 K | 1038.6 | 1.46813 | 3951
323.15 K | 1036.1 | 1.46678 | 2583
328.15 K | 1034.3 | 1.46532 | 1757
333.15 K | 1032.5 | 1.46391 | 1252
338.15 K | 1029.9 | – | 904
343.15 K | 1027.3 | – | 588
348.15 K | 1025.8 | – | 418
353.15 K | 1023.9 | – | 296
